Measurements: ChEMBL document CHEMBL3997829, “Discovery of novel substituted octahydropyrrolo[3,4-c]pyrroles as dual orexin receptor antagonists for insomnia treatment” (Bioorg Med Chem Lett, 2017)
In brackets after ≈: the same amount, converted by molar mass.

What was measured:
[1] = target: T1, Orexin/Hypocretin receptor type 1 (Homo sapiens, UniProt O43613); assay: Antagonist activity at human orexin 1 receptor expressed in HEK293 cells assessed as inhibition of orexin-induced calcium mobilization after 60 mins by FLIPR assay; format: functional, cell-based
T1 sequence (O43613 whole entry): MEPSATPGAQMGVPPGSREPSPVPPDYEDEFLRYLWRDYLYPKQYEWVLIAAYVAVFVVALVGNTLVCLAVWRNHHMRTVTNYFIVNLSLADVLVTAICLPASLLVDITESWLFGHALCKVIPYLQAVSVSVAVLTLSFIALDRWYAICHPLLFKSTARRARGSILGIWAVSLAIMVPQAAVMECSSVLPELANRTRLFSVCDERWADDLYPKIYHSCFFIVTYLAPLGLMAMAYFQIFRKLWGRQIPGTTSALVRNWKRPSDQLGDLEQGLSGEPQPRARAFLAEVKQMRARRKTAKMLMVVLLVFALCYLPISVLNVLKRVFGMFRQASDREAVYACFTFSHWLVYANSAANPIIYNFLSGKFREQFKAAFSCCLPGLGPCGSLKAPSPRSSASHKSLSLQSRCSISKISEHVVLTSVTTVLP

Orexin receptor type 2 = target: T2, Orexin receptor type 2 (Homo sapiens, UniProt O43614); assay: Antagonist activity at human orexin 2 receptor expressed in HEK293 cells assessed as inhibition of orexin-induced calcium mobilization after 60 mins by FLIPR assay; format: functional, cell-based
T2 sequence (O43614 whole entry): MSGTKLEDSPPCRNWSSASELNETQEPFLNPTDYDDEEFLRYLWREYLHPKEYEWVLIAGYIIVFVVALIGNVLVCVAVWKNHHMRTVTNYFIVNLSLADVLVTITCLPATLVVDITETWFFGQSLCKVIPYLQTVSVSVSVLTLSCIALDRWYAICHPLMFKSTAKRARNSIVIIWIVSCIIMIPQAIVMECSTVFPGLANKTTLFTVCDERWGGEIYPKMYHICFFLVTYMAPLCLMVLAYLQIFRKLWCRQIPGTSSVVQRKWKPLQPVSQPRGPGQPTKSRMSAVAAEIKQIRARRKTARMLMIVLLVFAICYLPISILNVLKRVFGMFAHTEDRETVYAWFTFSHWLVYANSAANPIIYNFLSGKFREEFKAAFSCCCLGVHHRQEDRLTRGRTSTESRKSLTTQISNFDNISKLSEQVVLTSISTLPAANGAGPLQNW

[2] = Thermodynamic solubility of the compound in phosphate buffer at pH 7.4 by HPLC method; format: physicochemical; details: read-out: Therm_solubility
[3] = Plasma concentration in Sprague-Dawley rat at 10 mg/kg, po at 0.3 hrs; format: ADME, organism-based
[4] = Plasma concentration in Sprague-Dawley rat at 10 mg/kg, po at 1 hr; format: ADME, organism-based
[5] = Plasma concentration in Sprague-Dawley rat at 10 mg/kg, po at 4 hrs; format: ADME, organism-based
Brain [6] = assay: Drug uptake in Sprague-Dawley rat brain at 10 mg/kg, po at 0.3 hrs; format: ADME, organism-based; details: in vivo
Brain [7] = assay: Drug uptake in Sprague-Dawley rat brain at 10 mg/kg, po at 1 hr; format: ADME, organism-based; details: in vivo
Brain [8] = assay: Drug uptake in Sprague-Dawley rat brain at 10 mg/kg, po at 4 hrs; format: ADME, organism-based; details: in vivo, BLD = below limit of detection
[9] = Ratio of drug level in brain to plasma in Sprague-Dawley rat at 10 mg/kg, po at 0.5 hrs; format: ADME, organism-based; details: read-out: BPR
[10] = Ratio of drug level in brain to plasma in Sprague-Dawley rat at 10 mg/kg, po at 1 hr; format: ADME, organism-based; details: read-out: BPR

Row | SMILES | IC50 [1] [µM] | IC50 (Orexin receptor type 2) [µM] | also measured
1 | O=C(c1cc(C(F)(F)F)ccc1-n1nccn1)N1C[C@@H]2CN(c3nc4cc(Cl)ccc4o3)C[C@@H]2C1 | 5.02 | 1.04 | 
2 | Cc1ccc(-n2nccn2)c(C(=O)N2C[C@@H]3CN(c4nc5cc(OC(F)(F)F)ccc5o4)C[C@@H]3C2)c1 | 3.92 | 4.71 | 
3 | Cc1ccc(-n2nccn2)c(C(=O)N2C[C@@H]3CN(c4nc5cc(C(F)(F)F)ccc5o4)C[C@@H]3C2)c1 | 1.78 | 0.508 | 
4 | Cc1ccc(-n2nccn2)c(C(=O)N2CC3CCN(c4nc5cc(Cl)ccc5o4)C3C2)c1 (stereo not drawn) | > 10 | > 10 | 
5 | O=C(c1cc(Cl)ccc1-n1nccn1)N1C[C@@H]2CN(c3nc4cc(Cl)ccc4o3)C[C@@H]2C1 | > 10 | 1.27 | 
6 | Cc1ccc(-n2nccn2)c(C(=O)N2CCCC3CN(c4nc5cc(Cl)ccc5o4)CC32)c1 (stereo not drawn) | > 10 | > 10 | 
7 | Cc1ccc(-n2nccn2)c(C(=O)N2CCC3CN(c4nc5cc(Cl)ccc5o4)CC32)c1 (stereo not drawn) | 2.97 | 0.354 | 
8 | Cc1ccc(-n2nccn2)c(C(=O)N2C[C@@H]3CN(c4ncc5cc(F)ccc5n4)C[C@@H]3C2)c1 | 0.216 | 0.108 | solubility thermodynamic [2]: 2.6 µM (≈ 1.15 µg/mL); concentration at 0.3 h [3]: 0.567 µM; concentration at 1 h [4]: 0.328 µM; concentration at 4 h [5]: 0.024 µM; Drug uptake (Brain [6]): 80 nmol/kg; Drug uptake (Brain [7]): 43 nmol/kg; Drug uptake (Brain [8]): Bld; Kp at 0.5 h [9]: 0.14; Kp at 1 h [10]: 0.13
9 | Cc1ccc(-n2nccn2)c(C(=O)N2C[C@@H]3CN(c4nc5cc(Cl)ccc5s4)C[C@@H]3C2)c1 | 0.327 | 1.19 | 
10 | COc1ccc2oc(N3C[C@H]4CN(C(=O)c5cc(C)ccc5-n5nccn5)C[C@H]4C3)nc2c1 | 0.401 | 0.311 | 
11 | Cc1ccc(-n2nccn2)c(C(=O)N2CC3CCCN(c4nc5cc(Cl)ccc5o4)C3C2)c1 (stereo not drawn) | > 10 | > 10 | 
12 | O=C(c1cc(OC(F)(F)F)ccc1-n1nccn1)N1C[C@@H]2CN(c3nc4cc(Cl)ccc4o3)C[C@@H]2C1 | 0.502 | 1.52 | 
13 | O=C(c1cc(F)ccc1-n1nccn1)N1C[C@@H]2CN(c3nc4cc(Cl)ccc4o3)C[C@@H]2C1 | 1.96 | 0.791 | 
14 | Cc1ccc(-n2nccn2)c(C(=O)N2C[C@@H]3CN(c4nc5cc(F)ccc5o4)C[C@@H]3C2)c1 | 0.293 | 0.131 | solubility thermodynamic [2]: < 2 µM; concentration at 0.3 h [3]: 1.26 µM; concentration at 1 h [4]: 0.859 µM; concentration at 4 h [5]: 0.077 µM; Drug uptake (Brain [6]): 74 nmol/kg; Drug uptake (Brain [7]): 42 nmol/kg; Drug uptake (Brain [8]): Bld; Kp at 0.5 h [9]: 0.06; Kp at 1 h [10]: 0.05
15 | Cc1ccc(-n2nccn2)c(C(=O)N2C[C@H]3CN(Cc4nc5cc(Cl)ccc5o4)C[C@H]3C2)c1 | 3.24 | 1.82 | 
